Experimental data as given in PubChem BioAssay (NCI).
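How tested: cells in 96-well plates exposed to compound for 48 hours at five concentrations. TGI denotes the concentration required for complete inhibition of growth.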

Assays:
Assay in all cases: NCI tumour cell line growth inhibition, 48 h
[1] = system: RPMI-8226 leukemia
[2] = system: COLO 205 colon
[3] = system: SF-268 CNS
[4] = system: MALME-3M melanoma
[5] = system: A549 NSCLC
[6] = system: OVCAR-5 ovarian
[7] = system: HOP-62 NSCLC
[8] = system: NCI-H226 lung
[9] = system: SK-MEL-28 melanoma
[10] = system: DMS 114 small cell lung
[11] = system: OVCAR-3 ovarian
[12] = system: U251 CNS
[13] = system: OVCAR-8 ovarian
[14] = system: SNB-75 CNS
[15] = system: NCI-H522 lung
[16] = system: UO-31 renal
[17] = system: HCT-15 colon
[18] = system: DMS 273 small cell lung
[19] = system: IGROV1 ovarian
[20] = system: EKVX NSCLC
[21] = system: NCI-H23 lung
[22] = system: K-562 leukemia
[23] = system: NCI-H460 lung
[24] = system: TK-10 renal
[25] = system: KM20L2 colon
[26] = system: KM12 colon
[27] = system: LXFL 529 NSCLC
[28] = system: MOLT-4 leukemia
[29] = system: LOX IMVI melanoma
[30] = system: HL-60(TB) leukemia
[31] = system: SK-MEL-2 melanoma
[32] = system: UACC-62 melanoma
[33] = system: SR leukemia
[34] = system: SNB-19 CNS
[35] = system: SN12C renal
[36] = system: M19-MEL melanoma
[37] = system: SF-295 CNS
[38] = system: SK-MEL-5 melanoma
[39] = system: RXF 393 renal
[40] = system: SW-620 colon
[41] = system: CCRF-CEM leukemia
[42] = system: M14 melanoma
[43] = system: ACHN renal
[44] = system: OVCAR-4 ovarian
[45] = system: 786-0 renal
[46] = system: HCT-116 colon
[47] = system: SF-539 CNS
[48] = system: SNB-78 CNS
[49] = system: CAKI-1 renal
[50] = system: MDA-MB-231 breast
[51] = system: MDA-N
[52] = system: HT29 colon
[53] = system: BT-549 breast
[54] = system: T-47D breast
[55] = system: HS 578T breast
[56] = system: PC-3 prostate
[57] = system: HOP-92 NSCLC
[58] = system: MCF7 breast
[59] = system: MDA-MB-435
[60] = system: UACC-257 melanoma
[61] = system: DU-145 prostate
[62] = system: SK-OV-3 ovarian
[63] = system: A498 renal
[64] = system: HCC-2998 colon
[65] = system: NCI/ADR-RES ovarian

With `S=c1ncc2c([nH]1)C1c3ccccc3C2c2ccccc21` the TGI [1] was > 100 µM, the TGI [2] was > 100 µM and the TGI [3] was > 100 µM. The TGI [4] was > 100 µM, the TGI [5] was > 100 µM and the TGI [6] was > 100 µM. For the same compound, the TGI [7] was > 100 µM, the TGI [8] was > 100 µM and the TGI [9] was > 100 µM. The TGI [10] was > 100 µM, the TGI [11] was > 100 µM and the TGI [12] was > 100 µM. For the same compound, the TGI [13] was > 100 µM, the TGI [14] was 77.2 µM and the TGI [15] was > 100 µM. For the same compound, the TGI [16] was > 100 µM, the TGI [17] was > 100 µM and the TGI [18] was > 100 µM. For the same compound, the TGI [19] was > 100 µM, the TGI [20] was > 100 µM and the TGI [21] was > 100 µM. For the same compound, the TGI [22] was > 100 µM, the TGI [23] was > 100 µM and the TGI [24] was > 100 µM. For the same compound, the TGI [25] was > 100 µM, the TGI [26] was > 100 µM and the TGI [27] was > 100 µM. For the same compound, the TGI [28] was > 100 µM, the TGI [29] was > 100 µM and the TGI [30] was 70.3 µM. For the same compound, the TGI [31] was > 100 µM, the TGI [32] was > 100 µM and the TGI [33] was > 100 µM. For the same compound, the TGI [34] was > 100 µM, the TGI [35] was > 100 µM and the TGI [36] was > 100 µM. The TGI [37] was > 100 µM, the TGI [38] was > 100 µM and the TGI [39] was > 100 µM. The TGI [40] was > 100 µM, the TGI [41] was > 100 µM and the TGI [42] was > 100 µM. The TGI [43] was > 100 µM, the TGI [44] was > 100 µM and the TGI [45] was > 100 µM. For the same compound, the TGI [46] was > 100 µM, the TGI [47] was > 100 µM and the TGI [48] was > 100 µM.
`CC(C)=CCCC(C)CCOS(=O)C(F)(F)F` (configuration not stated) was tested, and the TGI [1] was 90.8 µM, the TGI [2] was 20.2 µM and the TGI [49] was > 100 µM. The TGI [3] was 44.7 µM, the TGI [4] was 18.9 µM and the TGI [5] was 72.1 µM. The TGI [50] was 61.4 µM, the TGI [6] was 47.8 µM and the TGI [7] was > 100 µM. It also gave a TGI [51] of 14 µM, a TGI [8] of 41.4 µM and a TGI [9] of 34.6 µM. It also gave a TGI [52] of 28.5 µM, a TGI [11] of 27.8 µM and a TGI [53] of 77.8 µM. For the same compound, the TGI [12] was 22.9 µM, the TGI [13] was > 100 µM and the TGI [14] was 67.7 µM. The TGI [15] was 5.12 µM, the TGI [16] was 35.2 µM and the TGI [54] was > 100 µM. It also gave a TGI [17] of 11.5 µM, a TGI [19] of 74.6 µM and a TGI [20] of 30.2 µM. The TGI [21] was 14 µM, the TGI [22] was > 100 µM and the TGI [23] was 46.3 µM. The TGI [24] was > 100 µM, the TGI [26] was > 100 µM and the TGI [28] was 24.2 µM. The TGI [55] was 5.31 µM, the TGI [29] was 37.2 µM and the TGI [56] was 45.3 µM. It also gave a TGI [30] of 9.14 µM, a TGI [31] of 36.5 µM and a TGI [32] of 21.7 µM. For the same compound, the TGI [33] was 10.3 µM, the TGI [57] was > 100 µM and the TGI [58] was > 100 µM. For the same compound, the TGI [59] was 37.1 µM, the TGI [34] was 78 µM and the TGI [35] was 41.7 µM. The TGI [37] was 86.8 µM, the TGI [38] was 33.1 µM and the TGI [39] was 7.57 µM. For the same compound, the TGI [40] was > 100 µM, the TGI [41] was > 100 µM and the TGI [42] was 6.59 µM. For the same compound, the TGI [60] was 52.9 µM, the TGI [61] was > 100 µM and the TGI [43] was 34.4 µM. For the same compound, the TGI [62] was > 100 µM, the TGI [44] was 20.5 µM and the TGI [45] was > 100 µM. For the same compound, the TGI [63] was 63.7 µM, the TGI [46] was 30.3 µM and the TGI [64] was 27.5 µM. The TGI [47] was > 100 µM and the TGI [65] was 30.4 µM.
